This passage reports Kd results from ChEMBL document CHEMBL3991601, “The target landscape of clinical kinase drugs” (Science, 2017).

Calls of active or inactive are those of the source. Cut-off read from the data, not from the text of the source, for most assays here: actives have a measured Kd and inactives only a lower limit.

By Kd is commonly meant the free concentration of one partner at which half of the binding sites on the other are occupied at equilibrium, for simple one-to-one binding.

For experiment [1], the target named is T1, Mitogen-activated protein kinase kinase kinase 5 (Homo sapiens, UniProt Q99683).
T1 sequence (Q99683 whole entry): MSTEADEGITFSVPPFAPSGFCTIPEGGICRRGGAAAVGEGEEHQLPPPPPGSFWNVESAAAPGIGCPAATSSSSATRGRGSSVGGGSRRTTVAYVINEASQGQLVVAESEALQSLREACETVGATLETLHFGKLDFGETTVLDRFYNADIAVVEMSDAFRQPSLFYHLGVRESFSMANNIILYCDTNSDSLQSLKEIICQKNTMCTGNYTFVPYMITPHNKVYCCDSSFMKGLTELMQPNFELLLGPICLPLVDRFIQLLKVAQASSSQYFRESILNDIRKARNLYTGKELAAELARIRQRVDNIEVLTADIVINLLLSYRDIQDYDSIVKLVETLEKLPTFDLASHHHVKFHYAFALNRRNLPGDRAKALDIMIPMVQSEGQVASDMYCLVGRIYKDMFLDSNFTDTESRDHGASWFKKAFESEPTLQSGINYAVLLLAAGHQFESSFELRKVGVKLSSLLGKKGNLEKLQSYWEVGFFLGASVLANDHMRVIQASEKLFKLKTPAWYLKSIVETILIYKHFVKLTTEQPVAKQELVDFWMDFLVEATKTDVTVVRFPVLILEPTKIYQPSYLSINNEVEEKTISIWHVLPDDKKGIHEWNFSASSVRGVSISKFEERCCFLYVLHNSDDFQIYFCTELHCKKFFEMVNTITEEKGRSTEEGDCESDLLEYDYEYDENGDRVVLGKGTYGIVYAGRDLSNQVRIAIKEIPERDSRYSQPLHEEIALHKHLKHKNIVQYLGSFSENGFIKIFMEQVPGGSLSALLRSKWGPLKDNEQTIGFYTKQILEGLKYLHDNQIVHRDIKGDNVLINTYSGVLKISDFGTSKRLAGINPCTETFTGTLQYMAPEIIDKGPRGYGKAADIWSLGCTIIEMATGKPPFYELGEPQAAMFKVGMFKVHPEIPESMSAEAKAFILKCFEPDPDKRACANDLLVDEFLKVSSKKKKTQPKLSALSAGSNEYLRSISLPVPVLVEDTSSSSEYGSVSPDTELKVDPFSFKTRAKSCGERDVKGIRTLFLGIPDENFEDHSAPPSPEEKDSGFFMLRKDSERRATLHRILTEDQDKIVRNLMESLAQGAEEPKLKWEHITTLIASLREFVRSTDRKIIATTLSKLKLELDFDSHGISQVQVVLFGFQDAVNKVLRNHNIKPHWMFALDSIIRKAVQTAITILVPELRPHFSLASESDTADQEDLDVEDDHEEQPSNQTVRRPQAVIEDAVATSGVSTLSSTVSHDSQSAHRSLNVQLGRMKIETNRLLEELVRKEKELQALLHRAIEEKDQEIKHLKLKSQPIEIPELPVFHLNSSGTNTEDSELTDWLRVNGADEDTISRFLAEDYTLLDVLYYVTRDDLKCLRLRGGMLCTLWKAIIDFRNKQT

The target of experiment [2] is T2, Serine/threonine-protein kinase D3 (Homo sapiens, UniProt O94806).
T2 sequence (O94806 whole entry): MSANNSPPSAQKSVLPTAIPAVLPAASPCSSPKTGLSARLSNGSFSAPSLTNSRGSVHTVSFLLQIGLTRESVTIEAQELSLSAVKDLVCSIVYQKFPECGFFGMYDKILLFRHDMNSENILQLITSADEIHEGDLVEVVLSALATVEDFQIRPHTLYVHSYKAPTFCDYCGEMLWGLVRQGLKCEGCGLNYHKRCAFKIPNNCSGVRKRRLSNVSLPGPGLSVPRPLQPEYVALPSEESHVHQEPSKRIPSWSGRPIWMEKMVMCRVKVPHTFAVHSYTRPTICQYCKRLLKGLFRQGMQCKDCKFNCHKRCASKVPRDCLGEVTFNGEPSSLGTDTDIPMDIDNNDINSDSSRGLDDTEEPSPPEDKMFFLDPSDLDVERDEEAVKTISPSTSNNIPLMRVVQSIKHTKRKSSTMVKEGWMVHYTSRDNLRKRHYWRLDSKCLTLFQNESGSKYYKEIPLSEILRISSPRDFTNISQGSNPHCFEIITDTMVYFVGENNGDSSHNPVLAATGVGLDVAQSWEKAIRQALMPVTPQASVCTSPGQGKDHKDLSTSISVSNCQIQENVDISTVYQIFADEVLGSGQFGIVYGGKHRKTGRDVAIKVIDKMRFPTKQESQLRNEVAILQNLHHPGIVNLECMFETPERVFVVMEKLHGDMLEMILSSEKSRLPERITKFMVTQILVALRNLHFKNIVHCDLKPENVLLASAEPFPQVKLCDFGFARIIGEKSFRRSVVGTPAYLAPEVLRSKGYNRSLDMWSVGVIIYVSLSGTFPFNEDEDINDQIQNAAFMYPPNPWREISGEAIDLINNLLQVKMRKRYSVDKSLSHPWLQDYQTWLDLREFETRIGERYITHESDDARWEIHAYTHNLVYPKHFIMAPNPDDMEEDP

For experiment [3], the target named is Casein kinase II subunit alpha' (Homo sapiens, UniProt P19784).
Sequence of Casein kinase II subunit alpha' (P19784 whole entry): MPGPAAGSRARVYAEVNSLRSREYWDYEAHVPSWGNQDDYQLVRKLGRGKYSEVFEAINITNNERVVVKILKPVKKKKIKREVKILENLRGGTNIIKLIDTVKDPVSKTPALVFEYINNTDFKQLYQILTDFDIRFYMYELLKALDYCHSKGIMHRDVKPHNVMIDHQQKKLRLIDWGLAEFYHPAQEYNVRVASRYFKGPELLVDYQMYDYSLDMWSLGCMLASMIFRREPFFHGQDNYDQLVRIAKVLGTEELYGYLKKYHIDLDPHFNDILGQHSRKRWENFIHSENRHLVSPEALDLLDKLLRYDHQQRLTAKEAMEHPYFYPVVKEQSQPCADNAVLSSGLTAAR
The target in experiment [4] is Dual specificity mitogen-activated protein kinase kinase 2 (Homo sapiens, UniProt P36507).
Sequence of Dual specificity mitogen-activated protein kinase kinase 2 (P36507 whole entry): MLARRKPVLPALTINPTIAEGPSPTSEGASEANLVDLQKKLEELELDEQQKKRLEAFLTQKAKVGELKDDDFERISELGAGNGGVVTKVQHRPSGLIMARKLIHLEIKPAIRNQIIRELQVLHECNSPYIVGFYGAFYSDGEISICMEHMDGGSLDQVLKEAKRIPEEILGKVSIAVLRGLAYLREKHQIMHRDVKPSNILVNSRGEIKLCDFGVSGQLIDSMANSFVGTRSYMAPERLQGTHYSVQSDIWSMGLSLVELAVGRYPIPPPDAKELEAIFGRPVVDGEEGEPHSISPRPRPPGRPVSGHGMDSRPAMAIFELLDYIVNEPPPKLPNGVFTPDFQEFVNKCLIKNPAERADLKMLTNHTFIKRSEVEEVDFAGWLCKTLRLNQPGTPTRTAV
Experiment [5] has as its target Mitogen-activated protein kinase kinase kinase kinase 5 (Homo sapiens, UniProt Q9Y4K4).
In experiment [6] the target is T3, Tyrosine-protein kinase Tec (Homo sapiens, UniProt P42680).
T3 sequence (P42680 whole entry): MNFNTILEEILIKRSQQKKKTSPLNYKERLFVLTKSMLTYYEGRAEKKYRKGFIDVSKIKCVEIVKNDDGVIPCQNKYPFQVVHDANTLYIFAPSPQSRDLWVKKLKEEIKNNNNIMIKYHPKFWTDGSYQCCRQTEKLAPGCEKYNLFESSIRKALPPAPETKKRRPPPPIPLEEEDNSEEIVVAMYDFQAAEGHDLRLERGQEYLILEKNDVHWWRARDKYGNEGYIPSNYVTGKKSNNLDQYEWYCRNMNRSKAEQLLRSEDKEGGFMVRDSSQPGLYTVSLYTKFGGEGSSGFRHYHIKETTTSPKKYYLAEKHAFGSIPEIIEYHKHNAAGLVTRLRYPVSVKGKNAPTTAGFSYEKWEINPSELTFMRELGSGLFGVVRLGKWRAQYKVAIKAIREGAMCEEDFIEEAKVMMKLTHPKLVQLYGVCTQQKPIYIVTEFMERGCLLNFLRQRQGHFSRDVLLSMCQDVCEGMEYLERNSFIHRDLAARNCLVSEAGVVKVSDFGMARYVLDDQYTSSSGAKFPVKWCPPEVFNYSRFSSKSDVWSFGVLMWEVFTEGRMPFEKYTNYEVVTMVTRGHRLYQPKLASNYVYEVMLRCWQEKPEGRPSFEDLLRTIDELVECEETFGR
Note: in the data inactive means no Kd found up to 30 µM.

Sequence of Mitogen-activated protein kinase kinase kinase kinase 5 (Q9Y4K4 whole entry): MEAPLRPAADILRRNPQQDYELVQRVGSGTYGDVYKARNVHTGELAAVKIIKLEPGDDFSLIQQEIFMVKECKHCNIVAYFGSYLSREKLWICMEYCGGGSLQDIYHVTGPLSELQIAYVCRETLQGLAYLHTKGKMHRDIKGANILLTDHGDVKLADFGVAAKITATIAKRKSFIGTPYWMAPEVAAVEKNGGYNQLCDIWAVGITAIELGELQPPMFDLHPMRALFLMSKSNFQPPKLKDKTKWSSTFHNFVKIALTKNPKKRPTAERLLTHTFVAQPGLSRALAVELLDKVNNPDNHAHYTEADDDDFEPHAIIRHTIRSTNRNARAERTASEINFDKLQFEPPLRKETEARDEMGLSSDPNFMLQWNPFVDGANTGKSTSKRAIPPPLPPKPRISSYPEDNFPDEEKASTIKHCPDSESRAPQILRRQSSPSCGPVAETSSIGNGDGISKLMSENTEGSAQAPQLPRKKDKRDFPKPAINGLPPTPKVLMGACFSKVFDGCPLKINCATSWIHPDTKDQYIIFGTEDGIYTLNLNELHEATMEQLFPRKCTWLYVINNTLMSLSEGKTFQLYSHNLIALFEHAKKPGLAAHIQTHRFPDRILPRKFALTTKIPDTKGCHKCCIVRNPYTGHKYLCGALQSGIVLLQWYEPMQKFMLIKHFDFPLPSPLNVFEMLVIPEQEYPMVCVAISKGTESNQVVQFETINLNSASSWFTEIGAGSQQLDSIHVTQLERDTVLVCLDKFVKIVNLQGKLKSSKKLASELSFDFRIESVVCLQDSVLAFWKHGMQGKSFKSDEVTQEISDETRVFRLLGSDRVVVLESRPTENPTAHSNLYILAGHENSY

On to `O=C(c1ccc(F)c(F)c1Nc1ccc(I)cc1F)N1CC(O)([C@@H]2CCCCN2)C1` [COBIMETINIB], for which the Kd in experiment [1] is > 30 µM (inactive); in experiment [2], > 30 µM (inactive); in experiment [3], > 30 µM (inactive); in experiment [4] it was 0.022 µM (active); in experiment [5], > 30 µM (inactive); in experiment [6], > 30 µM (inactive).
Take `Cc1ccc(S(=O)(=O)Nc2nc3ccccc3nc2Nc2ccc3nsnc3c2)cc1`: the Kd in experiment [1], in experiment [2], in experiment [3], in experiment [4], in experiment [5] and in experiment [6] was > 30 µM (inactive) in each case.
Consider `CCS(=O)(=O)N1CC(CC#N)(n2cc(-c3ncnc4[nH]ccc34)cn2)C1` [BARICITINIB], for which the Kd in experiment [1], in experiment [2], in experiment [3], in experiment [4], in experiment [5] and in experiment [6] was > 30 µM (inactive) each time.
In the case of `Cc1ccc(NC(=O)c2ccc(CN3CC[C@H](N(C)C)C3)c(C(F)(F)F)c2)cc1Nc1nccc(-c2cncnc2)n1` [BAFETINIB], the Kd in experiment [1], in experiment [2], in experiment [3], in experiment [4], in experiment [5] and in experiment [6] was > 30 µM (inactive) throughout.
Take `Cc1ccc(-n2nc(C(C)(C)C)cc2NC(=O)NCc2cc(F)ccc2Oc2ccc3c(cnn3CCO)c2)cc1` [PEXMETINIB]: the Kd in experiment [1], in experiment [2], in experiment [3], in experiment [4], in experiment [5] and in experiment [6] was > 30 µM (inactive) each time.
`COc1ccc(-c2ccc3c(N4CCOC[C@@H]4C)nc(N4CCOC[C@@H]4C)nc3n2)cc1CO` [AZD-8055]: the Kd in experiment [1], in experiment [2], in experiment [3], in experiment [4], in experiment [5] and in experiment [6] was > 30 µM (inactive) throughout.
Turning to `C1=C/COCc2cc(ccc2OCCN2CCCC2)Nc2nccc(n2)-c2cccc(c2)COC/1` [PACRITINIB], the Kd in experiment [1] is > 30 µM (inactive); in experiment [2] it was > 30 µM (inactive); in experiment [3], 0.394 µM (active); in experiment [4], > 30 µM (inactive); in experiment [5] it was > 30 µM (inactive); in experiment [6], > 30 µM (inactive).
Take `O=C(O)[C@]1(Cc2cccc(Nc3nccs3)n2)CC[C@@H](Oc2cccc(Cl)c2F)CC1` [MK-5108]: the Kd in experiment [1] was > 30 µM (inactive); in experiment [2] it was > 30 µM (inactive); in experiment [3] it was > 30 µM (inactive); in experiment [4] it was > 30 µM (inactive); in experiment [5], > 30 µM (inactive); in experiment [6] it was 0.707 µM (active).
As to `COc1cc(N2CCC(N3CCN(C)CC3)CC2)ccc1Nc1ncnc(Nc2ccccc2S(=O)(=O)C(C)C)n1` [ASP-3026], the Kd is > 30 µM (inactive) in experiment [1]; > 30 µM (inactive) in experiment [2]; > 30 µM (inactive) in experiment [3]; > 30 µM (inactive) in experiment [4]; > 30 µM (inactive) in experiment [5]; 1.02 µM (active) in experiment [6].
For `CN1CCC(CNc2ccc3ncc(-c4cccc(OC(F)(F)F)c4)n3n2)CC1` [SGI-1776], the Kd was > 30 µM (inactive) in experiment [1]; > 30 µM (inactive) in experiment [2]; 7.92 µM (active) in experiment [3]; > 30 µM (inactive) in experiment [4]; > 30 µM (inactive) in experiment [5]; > 30 µM (inactive) in experiment [6].
As for `Cn1ncc(Cl)c1-c1cc(C(=O)N[C@H](CN)Cc2cccc(F)c2)sc1Cl` [AFURESERTIB], the Kd in experiment [1], in experiment [2], in experiment [3], in experiment [4], in experiment [5] and in experiment [6] was > 30 µM (inactive) in each case.
As to `CCCS(=O)(=O)Nc1ccc(F)c(C(=O)c2c[nH]c3ncc(-c4ccc(Cl)cc4)cc23)c1F` [VEMURAFENIB], the Kd was > 30 µM (inactive) in experiment [1]; > 30 µM (inactive) in experiment [2]; > 30 µM (inactive) in experiment [3]; > 30 µM (inactive) in experiment [4]; 1.8 µM (active) in experiment [5]; > 30 µM (inactive) in experiment [6].
For the molecule `COCCNCc1ccc(-c2cc3nccc(Oc4ccc(NC(=S)NC(=O)Cc5ccc(F)cc5)cc4F)c3s2)nc1` [GLESATINIB], the Kd in experiment [1], in experiment [2], in experiment [3], in experiment [4], in experiment [5] and in experiment [6] was > 30 µM (inactive) each time.
`Cn1cc(-c2ccc3nnc(C(F)(F)c4ccc5ncccc5c4)n3n2)cn1` [JNJ-38877605]: the Kd in experiment [1], in experiment [2], in experiment [3], in experiment [4], in experiment [5] and in experiment [6] was > 30 µM (inactive) in each case.
Regarding `Cc1cc([C@@H](C)Nc2ccccc2C(=O)O)c2nc(N3CCOCC3)cc(=O)n2c1` [AZD-6482], the Kd in experiment [1], in experiment [2], in experiment [3], in experiment [4], in experiment [5] and in experiment [6] was > 30 µM (inactive) throughout.
